logP data for 46 compounds are collected here from patent publication US20100022559A1, “BISOXIMES AS FUNGICIDES” (BAYER CROPSCIENCE AG, priority 2006, published 2010).

SMILES strings stand for the structures.

The first data set in a line: logP determination by HPLC on a reversed-phase column (C 18), EEC Directive 79/831 Annex V.A8. Type of data set: physicochemical. As to conditions: [a] acidic range, pH 2.3, 0.1% aqueous phosphoric acid and acetonitrile. How it is done: The stated logP values were determined in accordance with EEC Directive 79/831 Annex V.A8 by HPLC (high performance liquid chromatography) on a reversed-phase column (C 18). Temperature: 43° C.
Take `C/C(=N\OCC(C)CON)c1cc(C)cc(C)n1` (racemic) [XII-9]: the logP was 0.49^[a].

For the compound `C/C(=N\OCC(C)CON)c1cc(C(F)(F)F)cc(C)n1` (racemic) [XII-15], the logP is 2.33^[a].

`C/C(=N\OCCCON)c1cccc(C)n1` [XII-10]: the logP was 0.27^[a].

The data set is the same for the next values; noted with them: [b] LC-MS, acidic range, pH 2.7, 0.1% aqueous formic acid and acetonitrile.
In the case of `C/C(=N\OCC(C)CON)c1cc(C)cc(C)n1` (racemic) [XII-9], the logP is 0.49^[b].

Regarding `C/C(=N\OCC(C)CON)c1cc(C(F)(F)F)cc(C)n1` (racemic) [XII-15], the logP was 2.33^[b].

As to `C/C(=N\OCCCON)c1cccc(C)n1` [XII-10], the logP is 0.27^[b].

The same data set, now with this note: [c] LC-MS, neutral range, pH 7.8, 0.001 molar aqueous ammonium bicarbonate solution and acetonitrile.
As for `C/C(=N\OCC(C)CON)c1cc(C(F)(F)F)cc(C)n1` (racemic) [XII-15], the logP is 3.38^[c].

Take `C/C(=N\OCCCON)c1cccc(C)n1` [XII-10]: the logP is 1.72^[c].

Staying with this data set, now noted: method marked [a] in Table 1.
As to `CCC1=NOC(CON=C(c2cccc(C)n2)C(C)C)(CON=C(c2cccc(C)n2)C(C)C)C1` (stereo not shown) [compound 595], the logP is 4.79^[a].

As to `Cc1cccc(C(=NOCC(C)(C)CON=C(c2ccccc2)c2cccc(C)n2)c2ccccc2)n1` (mixture of isomers) [compound 660], the logP was 4.09^[a].

The same data set, now with this note: method marked [b] in Table 1.
For `CC(=NOc1ncnc(ON=C(C)c2cccc(C)n2)c1F)c1cccc(C)n1` [compound 727], the logP was 3.13^[b].

As for `Cc1cc(C)nc(/C(N)=N/OCc2ccccc2CO/N=C(\N)c2nc(C)cc(C)n2)n1` [compound 700], the logP is 2.23^[b].

`Cc1nc(/C(N)=N/OCc2cccc(CO/N=C(\N)c3nc(C)c4c(n3)CCCC4)c2)nc2c1CCCC2` [compound 712]: the logP is 3.09^[b].

Regarding `CC(=NOCCCCCCON=C(C)c1sc(C)nc1C)c1cccc(C)n1` (single isomer, unassigned) [compound 542], the logP is 3.99^[b] (isomer A).

As to `C=C(CON=C(C)c1cccc(C)n1)CON=C(c1cccc(C)n1)C(C)C` (single isomer, unassigned) [Compound 672], the logP is 3.87^[b] (isomer A).

For `CC(=NOCC(CON=C(C)c1cc(C)cc(C)n1)C(C)C)c1cc(C)cc(C)n1` (stereo not shown) [Compound 682], the logP was 3.12^[b].

For the compound `CC1=NOC(CON=C(C)c2cccc(C)n2)(CON=C(C)c2cccc(C)n2)C1` (stereo not shown) [compound 596], the logP was 2.20^[b].

For the compound `CCCC(=NOCC1(CON=C(CCC)c2cccc(C)n2)CC(c2ccccc2)=NO1)c1cccc(C)n1` (stereo not shown) [compound 621], the logP was 5.9^[b].

Turning to `Cc1nc(/C(N)=N/OCc2cccc(CO/N=C(\N)c3nc(C)c(Cl)c(C)n3)c2)nc(C)c1Cl` [compound 715], the logP is 3.29^[b].

On to `CC(=NOCC(C)CON=C(C)c1cccc(C(=O)c2ccccc2)n1)c1cccc(C)n1` (stereo not shown) [Compound 690], for which the logP is 5.75^[b].

With `CCCC1=NOC(CON=C(C)c2ccc(C)c(C)n2)(CON=C(C)c2ccc(C)c(C)n2)C1` (stereo not shown) [compound 629], the logP is 3.11^[b].

For `COCc1nc(/C(N)=N/OCc2ccccc2CO/N=C(\N)c2nc(COC)c(C)c(COC)n2)nc(COC)c1C` [compound 708], the logP is 2.16^[b].

Turning to `CC(=NOCC#CCON=C(C)c1cccc(C)n1)c1cccc(C)n1` [Compound 706], the logP was 3.12^[b].

The data set is the same for the next values; noted with them: method marked [c] in Table 1.
As to `CC(=NOCC(CON=C(C)c1cc(C)cc(C)n1)C(C)C)c1cc(C)cc(C)n1` (stereo not shown) [Compound 682], the logP is 7.09^[c].

Still in this data set, the particulars now being: method marker [a] (footnote not shown); isomer A / isomer B / isomer mixture as noted in the cell.
As for `Cc1cccc(C(CC(C)C)=NOCCCON=C(CC(C)C)c2cccc(C)n2)n1` (single isomer, unassigned) [Compound 115], the logP was 7.08^[a] (isomer B).

Take `CC(=NOCC1(CON=C(C)c2cccc(C)n2)CCO1)c1ccccn1` (racemic) [compound 26]: the logP is 2.29^[a].

On to `Cc1cccc(C(=NOCCCON=C(c2cccc(C)n2)C(C)C)C(C)C)n1` (single isomer, unassigned) [compound 89], for which the logP was 4.45^[a] (isomer A).

Staying with this data set, now noted: method marker [b]; isomer A / isomer B / isomer mixture as noted in the cell.
As to `C=C(CON=C(C)c1cccc(C)n1)CON=C(CC(C)C)c1ncccc1C` (single isomer, unassigned) [compound 155], the logP is 4.40^[b] (isomer A).

In the case of `C=C(CON=C(C)c1cccc(C)n1)CON=C(N)c1cccc(C)n1` [Compound 23], the logP is 2.75^[b].

In the case of `C=C(CON=C(C)c1cccc(C)n1)CON=C(CC(C)C)c1ncccc1C` (mixture of isomers) [compound 154], the logP is 5.08^[b].

For the compound `Cc1nc(/C(N)=N/OCO/N=C(\N)c2nc(C)c(Cl)c(C)n2)nc(C)c1Cl` [compound 41], the logP is 2.36^[b].

As to `CC(=NOCCCCCON=C(C)c1cccc(C)n1)c1cccc(C)n1` [Compound 11], the logP was 3.85^[b].

Take `CC(=NOCC1(CON=C(C)c2cccc(C)n2)CCO1)c1ccccn1` (racemic) [compound 26]: the logP is 2.43^[b].

As to `CC(=NOCCCON=C(C)c1nc(C)c(C)s1)c1nc(C)c(C)s1` [compound 51], the logP was 5.03^[b].

In the case of `C=C(CON=C(C)c1cccc(C)n1)CON=C(C)c1ccc(Cl)s1` (single isomer, unassigned) [compound 195], the logP was 4.82^[b] (isomer A).

For the compound `C=C(CON=C(C)c1cccc(C)n1)CON=C(CC)c1ncccc1C` (single isomer, unassigned) [compound 143], the logP was 3.23^[b] (isomer A).

For `C=C(CON=C(C)c1cccs1)CON=C(C)c1cccs1` (single isomer, unassigned) [compound 79], the logP is 4,56^[b] (isomer A).

Staying with this data set, now noted: value marked [a].
For `COC(=NOCC(C)CON=C(OC)c1cccc(C)n1)c1cccc(C)n1` (stereo not shown) [Compound 835], the logP was 1.95^[a].

In the case of `C=C(CON=C(C#N)c1cc(C)cc(C)n1)CON=C(C#N)c1cc(C)cc(C)n1` [compound 830], the logP is 4.50^[a].

Still in this data set, the particulars now being: value marked [b].
`CC(=NOCC(C)CON=C(C)c1cc(C)c(C)nn1)c1cc(C)c(C)nn1` (stereo not shown) [compound 309]: the logP is 2.58^[b].

Consider `CC(=NOCC(C)CON=C(C)c1cccc(C)n1)c1cncc(C)c1` (stereo not shown) [compound 431], for which the logP was 2.37^[b].

Turning to `CC(=NOCCCCCCON=C(C)c1ccccc1Cl)c1cccc(C)n1` [compound 391], the logP is 5.84^[b].

`COc1ccc(C(C)=NOCC(C)(C)CON=C(C)c2cc3ccccc3o2)cc1OC` [compound 415]: the logP was 5.42^[b].

Take `COc1ccc(C(C)=NOCC(C)(C)CON=C(C)c2cccc(C)n2)cc1OC` [compound 414]: the logP is 4.57^[b].

Turning to `C=C(CON=C(C)c1cccc(C)n1)CON=C(C)c1ncccc1C` (single isomer, unassigned) [compound 478], the logP was 3.11^[b] (isomer B).

As to `CC(=NOCCCCCCON=C(c1ccccc1)c1ncccc1C)c1cccc(C)n1` [compound 341], the logP was 4.98^b].

For `CC(=NOCC(C)CON=C(C)c1cccc2ccccc12)c1cccc(C)n1` (stereo not shown) [compound 437], the logP is 5.36^[b].

Turning to `CC(=NOCCCCCCON=C(C)c1cccc(C(C)C)n1)c1cccc(C)n1` [compound 465], the logP was 7.12^[b].

For the compound `CC(=NOCC(C)(C)CON=C(C)c1cccc(C)n1)c1cccnc1` [compound 418], the logP is 2.80^[b].

With `CC(=NOCCCCON=C(C)c1cccc(C)n1)c1cccc(Cl)c1` [compound 442], the logP is 5.54^[b].

For `CC(=NOCC(C)(C)CON=C(C)c1ccccc1Cl)c1cccc(C)n1` [compound 413], the logP is 5.59^[b].

In the case of `CCC(CC)(CON=C(C)c1cc(C)cc(C)n1)CON=C(C)c1cc(C)cc(C)n1` [Compound 811], the logP was 4.79^[b].

For `CC(=NOCC1(CON=C(C)c2ccc(C)c(C)n2)CC1)c1ccc(C)c(C)n1` [Compound 315], the logP is 2.84^[b].

The same data set, now with this note: value marked [c].
In the case of `CCC(CC)(CON=C(C)c1cc(C)cc(C)n1)CON=C(C)c1cc(C)cc(C)n1` [Compound 811], the logP is 7.36^[c].

As to `CC(=NOCC1(CON=C(C)c2ccc(C)c(C)n2)CC1)c1ccc(C)c(C)n1` [Compound 315], the logP is 6.08^[c].
